Experimental data taken from patent US20050187239A1 (priority 2002, published 2005).

System: Male CD-1 mice
Conditions: mouse, in vivo

## CN1CC[C@]23c4c5ccc(O)c4O[C@H]2[C@@H](O[C@@H]2O[C@H](C(=O)O)[C@@H](O)[C@H](O)[C@H]2O)C=C[C@H]3[C@H]1C5 [M6G, morphine-6β-glucuronide]
  ED50 Value, Combination (Total Drug Dose), Additive (predicted): 2.80 ± 0.21 mg/kg s.c.
  ED50 Value, Combination (Total Drug Dose), Observed: 1.03 ± 0.34 mg/kg s.c.
  ED50 Value, Drug alone: 3.7 ± 0.4 mg/kg s.c.
  isobolographic analysis: combination with methadone versus composite additive line (FIG. 3): significantly greater than the composite additive line
sc
  interaction with a fixed dose of L-methadone (FIG. 1A): greater than the sum of their independent actions

## CCOC(=O)C1(c2ccccc2)CCN(C)CC1 [meperidine]
sc
  interaction with a fixed dose of L-methadone (FIG. 1A): additive interactions

## COc1ccc2c3c1O[C@H]1C(=O)CC[C@@]4(O)[C@@H](C2)N(C)CC[C@]314 [oxycodone]
sc
  interaction with a fixed dose of L-methadone (FIG. 1A): additive interactions

## CCC(=O)C(C[C@H](C)N(C)C)(c1ccccc1)c1ccccc1 [D-Methadone, D-methadone]
  ED50 Value, Drug alone: >>4 mg/kg s.c.
  analgesic effect alone: did not show any effects alone
  effect on morphine responses when given together (FIG. 2): did not influence morphine responses

## CCC(=O)C(C[C@@H](C)N(C)C)(c1ccccc1)c1ccccc1 [L-Methadone, L-methadone]
  ED50 Value, Drug alone: 1.9 ± 0.2 mg/kg s.c.
  ED80 dose: 4 mg/kg s.c.
  effect on morphine responses when given together (FIG. 2): did reveal synergy
sc
  interaction with morphine (FIG. 1B): greater than additive interactions

## CN1CC[C@]23c4c5ccc(O)c4O[C@H]2C(=O)CC[C@@]3(O)[C@H]1C5 [oxymorphone]
sc
  interaction with a fixed dose of L-methadone (FIG. 1A): additive interactions

## COc1ccc2c3c1O[C@H]1[C@@H](O)C=C[C@H]4[C@@H](C2)N(C)CC[C@@]341 [Codeine, codeine]
  ED50 Value, Combination (Total Drug Dose), Additive (predicted): 2.79 ± 0.22 mg/kg s.c.
  ED50 Value, Combination (Total Drug Dose), Observed: 0.74 ± 0.10 mg/kg s.c.
  ED50 Value, Drug alone: 3.7 ± 0.4 mg/kg s.c.
  isobolographic analysis: combination with methadone versus composite additive line (FIG. 3): significantly greater than the composite additive line
sc
  interaction with a fixed dose of L-methadone (FIG. 1A): greater than additive responses

## CN1CC[C@]23c4c5ccc(O)c4O[C@H]2[C@@H](O)C=C[C@H]3[C@H]1C5 [Morphine, morphine]
  ED50 Value, Combination (Total Drug Dose), Additive (predicted): 3.11 ± 0.32 mg/kg s.c.
  ED50 Value, Combination (Total Drug Dose), Observed: 0.83 ± 0.12 mg/kg s.c.
  ED50 Value, Drug alone: 4.7 ± 1.1 mg/kg s.c.
  analgesic activity of the combination versus additivity (FIG. 4): significantly greater than additive
  isobolographic analysis: combination with methadone versus composite additive line (FIG. 3): significant greater than the composite additive line
sc
  interaction with a fixed dose of L-methadone (FIG. 1A): greater than the sum of their independent actions
